How the values were obtained:
N2A cells [1] = assay: MTS cytotoxicity assay, N2A; type: cell-based; settings: 1-1000 μM, 24, 48 or 72 hours
Procedure: (§1) Cytotoxicity of C60-ser was determined by an MTS (3-(4,5-dimethylthiazol-2-yl)-5-(3-carboxymethoxyphenyl)-2-(4-sulfophenyl)-2H-tetrazolim) colorimetric assay on four different cell lines, each representing a different cell type. Specifically, HepG2 (liver epithelium), HUVEC (endothelial cells), N2A (neuroblastoma cells representative of normal neurons), and NIH3T3 (fibroblasts) were analyzed. The cells were seed in a 96-well tissue culture polystyrene plate at different seeding concentrations based on the cell's doubling time. HUVEC cells were seeded at 10,000 cells/well (24 hour experiments), 8,000 cells/well (48 hour experiments), and 5,000 cells/well (72 hour experiments), and incubated for 24 hours in a humidified atmosphere with 5% C02 at 37° C. […] After incubation with MTS, the optical density (OD) of the resulting formazan solution was read at 490 nm using a microplate reader (Biotek Cytation 5 cell Imaging Multi-Mode reader, Winooski, VT). The cell viability was obtained by normalizing the absorbance of the sample with that of the control wells containing untreated cells. The cell viability was expressed as a percentage, assigning the viability of non-treated cells as 100%. […]

HepG2 cells = assay: MTS cytotoxicity assay, HepG2; type: cell-based; settings: HepG2, 1-1000 μM, 24, 48 or 72 hours
Procedure: as §1

N2A cells [2] = assay: ROS by H2-DCFDA probe after proton irradiation, N2A; type: cell-based; settings: pretreated 100 μM, TBHP 200 μM, 1 Gy proton, read 30 minutes post radiation
Excerpt: Cell lines were irradiated using pencil beam scanning (PBS) proton beams produced by IBA ProteusOne (Ion Beam Applications, Louvain-la-Neuve, Belgium). Single layer mono-energy 227 MeV pencil beams with uniform spacing of 0.25 cm between each spot were used to create a large field size with uniform dose distribution (±2%) that encompassed all sample wells containing the cells. A fixed source to surface distance (SSD) setup and gantry at 180 degrees was used to delivery 0.5, 1, 2, 4, and 6 Gray (Gy) dose of ionizing radiation to cells. The cells were place at an 8 cm depth, with a linear energy transfer (LET) of approximately 1.7 keV/μm, using solid water slabs as a buildup. […] The monitor units needed to deliver the intended dose were calculated using the measure dose/MU values.
Post radiation, 2′,7′-dichlorodihydrofluorescein diacetate (H2-DCFDA) probes were used to measure the level of reactive oxygen species (ROS) post-proton radiation (1 Gy, 230 MeV proton beam). […] A fluorescence microplate reader (SpectraMax M5, Molecular Devices Corporation, California, USA) was used to detect the generation of fluorescent DCF molecules with an excitation filter of 485 nm and an emission filter of 525 nm, with a 515 nm cutoff filter. […] Following irradiation, the cells were transported back for plate reading, 30 minutes post radiation.

NIH3T3 cells = assay: Seahorse mitochondrial respiration (oxygen consumption rate), NIH3T3; type: cell-based; settings: NIH3T3, pretreated 2 hours before 1 Gy 230 MeV proton
Procedure: The oxygen consumption rates were assessed in N2A, HUVEC, NIH3T3, and HepG2 cell lines with a Seahorse XFe96 (Agilent Technologies, Santa Clara, CA, USA). Cells were treated with 0 and 1 Gy of 230 MeV proton irradiation. The control plates were run at about the same time post plating. Each cell line was optimized prior to these experiments, and data was presented normalized to cell number plated. The standard mitochondrial stress test was performed using serial injections of oligomycin (1.5 μM), carbonyl cyanide p-(trifluoromethoxy)phenylhydrazone (FCCP, 1 μM), and rotenone/antimycin A mixture (0.5 μM). After injection of oligomycin, which inhibits ATP synthase (complex V), there was a drop in electron flow through the electron transport chain (ETC) and a resultant drop in oxygen consumption rate (OCR) of the cells. Injection of FCCP collapsed the proton gradient and allowed for uninhibited electron flow through the ETC supercomplexes. […] The reserve respiratory capacity was calculated by subtracting the basal respiratory capacity from the maximal respiratory capacity.

[3] = tested on: HCT116 colorectal cancer cells; assay: Clonogenic assay of irradiated HCT116 colorectal cancer cells; type: cell-based; settings: HCT116, 100 μM 2 hours, 0-6 Gy
Procedure: A clonogenic assay of HCT116 colorectal cancer cells was conducted. 2×10^6 cells were treated with 100 μM C60-ser for 2 hours and exposed to 0-6 Gy of radiation.

[4] = tested on: Panc02 tumor on the thigh of C57B16 mice; assay: Syngeneic mouse model of pancreatic cancer, tumor volume under radiation; type: in vivo; settings: 700 mg/kg per os once 12 hours before first radiation, with capecitabine 350 mg/kg 5 days, 2 Gy x 5 days, 20 days
Procedure: A syngeneic mouse model of pancreatic cancer (Panc02 growing on the thigh of C57B16 mice) was used to evaluate the effects of C60-ser on in vivo tumors. Mice were treated with 350 mg/kg capecitabine via per os gavage for 5 days 1 hour before radiation (RT+Cape), or capecitabine treatment with a single dose of 700 mg/kg C60-ser via per os gavage once 12 hours before the first dose of radiation (RT+Cape+c60 Ser). Mice were exposed to 2 Gy of radiation (RT) once per day for 5 days. A control group (Cont) without treatment also was exposure to the radiation treatment. Normalized tumor volumes were monitored for 20 days.

O=C(NC(CO)CO)C1(C(=O)NC(CO)CO)C23c4c5c6c7c8c4-c4c2c2c9c%10c4C4%11c%12c-%10c%10c%13c%14c%12-c%12c(c-7c7c%15c%12C%14%12C(C(=O)NC(CO)CO)(C(=O)NC(CO)CO)C%12%14c%12c%16c%17c%18c(c%12-%15)C7%12C(C(=O)NC(CO)CO)(C(=O)NC(CO)CO)C6%12c6c-5c5c7c(c6-%18)C%176C(C(=O)NC(CO)CO)(C(=O)NC(CO)CO)C6%12c6c-7c(c-2c2c6-c6c%12c-%16c%14c-%13c6C%106C(C(=O)NC(CO)CO)(C(=O)NC(CO)CO)C926)C513)C84C%11(C(=O)NC(CO)CO)C(=O)NC(CO)CO (stereo not drawn) [C60-ser, C60-serinol]
percent viability (N2A cells [1]): did not result in a significant decrease in viability
percent viability (HepG2 cells): did not result in a significant decrease in viability
ROS (H2-DCFDA fluorescence) (N2A cells [2]): significant reduction in ROS
radiation-induced increase in respiratory capacity (NIH3T3 cells): dampened and, in some cases, reduced to normal or slightly below normal levels
surviving fraction of cells vs control [3]: no difference in the surviving fraction of cells
normalized tumor volume vs capecitabine alone [4]: not significantly different in normalized tumor volume

Source: patent US20240189263A1, “DERIVATIZED C60 MOLECULES AND METHODS AND MATERIALS FOR USING DERIVATIZED C60 MOLECULES TO REDUCE RADIATION INJURY” (Mayo Foundation for Medical Education and Research, priority 2021, published 2024)
